# Literature values, collected in patent US5418161A (The Chinese University of Hong Kong, priority 1993, dated 1995).
smiles,measurement,value
O=C1/C(=C2\Nc3ccc(S(=O)(=O)O)cc3C2=O)Nc2ccc(S(=O)(=O)O)cc21 [indigo carmine],solubility in water,soluble
